Three compounds from BindingDB's records for doi:10.1021/jm00157a006 (1987) can be followed below.

Experiment [1] concerns the target Renin (Sus scrofa). Briefly: In vitro inhibitory activity against hog plasma renin.
For experiment [2], the target named is Renin (Sus scrofa). Nature of the experiment: Inhibition of hog […] plasma renin activity.

Non-standard residues stand in square brackets, D forms with d. Residues, ends and D or L forms follow the SMILES beside them. *: point of attachment. Ala(1-Adamantyl) = N[C@@H](CC12CC3CC(CC(C3)C1)C2)C(=O)O; Sta = CC(C)C[C@H](N)[C@@H](O)CC(=O)O; Cbz = O=C(OCc1ccccc1)*; Boc = CC(C)(C)OC(=O)*

Compound `COC(=O)C[C@H](O)[C@H](CC(C)C)NC(=O)[C@H](C)NC(=O)C[C@H](O)[C@H](CC(C)C)NC(=O)[C@H](Cc1ccccc1)NC(=O)[C@H](Cc1ccccc1)NC(=O)OC(C)(C)C` [4-(2-{4-[2-(2-tert-Butoxycarbonylamino-3-phenyl-propionylamino)-3-phenyl-propionylamino]-3-hydroxy-6-methyl-heptanoylamino}-propionylamino)-3-hydroxy-6-methyl-heptanoic acid methyl ester] registered an IC50 against Renin (Sus scrofa) [1] of 52 nM. In the case of `COC(=O)C[C@H](O)[C@H](CC(C)C)NC(=O)[C@H](C)NC(=O)C[C@H](O)[C@H](CC(C)C)NC(=O)[C@@H](NC(=O)[C@H](Cc1c[nH]c2ccccc12)NC(=O)OCc1ccccc1)C(C)C` [4-[2-(4-{2-[2-Benzyloxycarbonylamino-3-(1H-indol-3-yl)-propionylamino]-3-methyl-butyrylamino}-3-hydroxy-6-methyl-heptanoylamino)-propionylamino]-3-hydroxy-6-methyl-heptanoic acid methyl ester] (Cbz-WV[Sta]A[Sta]-OMe), the IC50 at Renin (Sus scrofa) [2] was determined as 15 nM. On to `COC(=O)C[C@H](O)[C@H](CC(C)C)NC(=O)[C@H](C)NC(=O)C[C@H](O)[C@H](CC(C)C)NC(=O)[C@H](Cc1c[nH]cn1)NC(=O)[C@H](CC12CC3CC(CC(C3)C1)C2)NC(=O)OC(C)(C)C` [4-(2-{4-[2-(3-Adamantan-1-yl-2-tert-butoxycarbonylamino-propionylamino)-3-(1H-imidazol-4-yl)-propionylamino]-3-hydroxy-6-methyl-heptanoylamino}-propionylamino)-3-hydroxy-6-methyl-heptanoic acid methyl ester] (Boc-[Ala(1-Adamantyl)]H[Sta]A[Sta]-OMe), for which the midpoint of inhibition at Renin (Sus scrofa) [1], the IC50, lay at 600 nM. This lies in the sub-micromolar range.
